Results from patent US20260060239A1, “NATURAL-BASED SALICYLIC ACID POLY(ANHYDRIDE ESTER) HYDROGELS FOR AGRICULTURAL APPLICATIONS” (The Regents of The University of California, priority 2022, published 2026).
Like-named read-outs stand apart in the source and are kept apart here.

Assays:
micro-tom tomato plants [1] = format: in vivo
Protocol: The Percival chambers were used to mimic environmental conditions.
(§1) All plants received 75 mL right after dose application. […] Death plants were removed from the study.
(§2) At day 48 of the plant cycle, groups correspondent to the drought condition had all the water removed from the tray and were kept in the chamber. Plants under normal conditions had regularly water exchange two times a week until the end of the plant cycle. All plants were closely monitored, and visible observations were recorded, including measurements of plant height, number of leaves, branches, flower buds, flowers, and tomatoed were taken regularly. Clay and fertilizer were applied as needed and dead plants were removed from the study.
The harvest day was determined by the abundant number of red tomatoes: plant measurements were performed as described above. Plants were removed from their pots and clay was washed out of the roots. Tomatoes were harvested, photographed, and measured (diameter, height and mass). Individual plants were also photographed. Root and plant length was recorded, and plant mass was measured using a scale.

micro-tom tomato plants [2] = details: for percent plant growth (plant height) during dosage window: FIG. 9A
Protocol: Exogenous application of salicylic acid favors plants under stress by regulating processes such as photosynthesis, membrane permeability, nutrient uptake, transpiration, and the activity of antioxidant enzymes. […] Final measurements of plant height, water content, root length, and tomato production yield were also performed.
Micro-tom was germinated from seeds under hydroponic conditions and grown under vertical farming conditions. Soilless clay media was used, and smart fertilizer was applied. Plants were incubated under normal conditions for 16 days. Seedlings were then transplanted using pre-wet clay and incubated under normal conditions in Percival chambers with abundant water supply and regular water exchanges for an additional 34 days. The Percival chambers were used to mimic environmental conditions. The day and night cycles were set for 16 hour (day) at 25° C. followed by 8 hour (night) at 25° C. CO2 levels were maintained at 410 ppm with 70% relative humidity.
Each plant was labeled, and initial measurements were taken including plant height, total number of leaves, branches, and total number of flower buds, flowers and tomatoes if applicable. Individual group pictures were taken as visual record and first dose was applied accordantly to the group's requirements and schedules (FIG. 7). Dose regimen was similar between all groups with a total duration of 7 days (Dosage Window). Doses were applied at days 0, 2 and 4 of the dosage window. Remaining water in the group trays were removed right before dose applications. Chemicals were applied as a powder directly in the clay surface avoiding contact with the plant. All plants received 75 mL right after dose application. At day 7, remaining water in the trays were removed, final plants measurements and visual observation was recorded. Death plants were removed from the study. Extra clay and fertilizer were added, and DI-water was applied to all plants: 150 mL to normal plants and 50 mL to drought plants to activate the fertilizer.

micro-tom tomato plants [3] = assay: Treatment window under drought stress conditions (water supply removed); format: in vivo; details: for first death under drought: FIG. 12
Protocol: Plants were incubated under normal conditions for 16 days. […] The Percival chambers were used to mimic environmental conditions.
as §1
as §2, with “The treatment window corresponds to the period of time where the groups were exposed to either normal conditions with abundant water supply or to intense drought stress conditions where the water supply was completely removed until plants were found dead. At” for “At”

[4] = 3x: three dosages of 0.05 mmol SA

Structure (SMILES): O=C(O)c1ccccc1O [SA, salicylic acid]
- plants dead at time of harvest (micro-tom tomato plants [1]; 1x, across the study, FIG. 15): three
- total number of red tomatoes per group (micro-tom tomato plants [1]; 1x, harvest day, FIG. 19B): least number of red tomatoes
- percent plant growth after 14 days (micro-tom tomato plants [1]; 1x, normal conditions, FIG. 10A): lowest percent growth
- variation of number of branches during the treatment window (micro-tom tomato plants [1]; 1x, normal conditions, FIG. 13B): highest variation
- roots holding the clay after removal from the pot (micro-tom tomato plants [1]; 3x, harvest): stronger at holding the clay in place
- total number of tomatoes per group (micro-tom tomato plants [1]; 3x, harvest day, compared with DI water, FIG. 19A): similar
- percent plant growth (plant height) during dosage window (micro-tom tomato plants [2]; 1x: single dose 0.15 mmol SA or equivalent): negligible
- variation in the number of branches during dosage window (micro-tom tomato plants [2]; 1x: single dose 0.15 mmol, FIG. 9B): decrease
- stress and deaths after the dosage window (micro-tom tomato plants [2]; 1x: single powder dose, 0.15 mmol SA (or equivalent in polymer) per plant, FIG. 8): more harmful
- percent plant growth (plant height) during dosage window (micro-tom tomato plants [2]; [4]): smaller than the DI-water control group
- stress caused during dosage window (micro-tom tomato plants [2]; 3x: three dosages of 0.05 mmol SA, compared with SA 1x): less significative
- plants mortality right after treatment (micro-tom tomato plants [2]; compared with SAPAE): higher
- first death under drought (micro-tom tomato plants [3]; 1x: single dose 0.15 mmol SA or equivalent, day of treatment window): 17 days
- first death under drought (micro-tom tomato plants [3]; [4]): 20 days
- flower production under drought stress (micro-tom tomato plants [3]; 3x, 14 days treatment time point, flower buds, no opened flowers, FIG. 11): second-best group
